The text below walks through data of PMC10418366, “Fighting Celiac Disease: Improvement of pH Stability of Cathepsin L In Vitro by Computational Design” (International Journal of Molecular Sciences, 2023).

The test has as its target T1, rTcCathL1 (Tribolium castaneum cathepsin L) (Tribolium castaneum, UniProt D6X519).
T1 construct: gene AUGUSTUS-3.0.2_01950; mature enzyme after autocatalytic processing (pH 4.0, 37 °C) of recombinant proenzyme secreted by Pichia pastoris GS115 (pPICZalphaA); signal peptide and propeptide total 115 residues (stated for the model)
The test is described as follows: active-site titration with irreversible inhibitor. It is filed as biochemical. To be noted: covalent, 37 °C assay with Glp-Phe-Gln-pNA, 6 mM cysteine, 1 mM EDTA.

T1 sequence (D6X519 116-328): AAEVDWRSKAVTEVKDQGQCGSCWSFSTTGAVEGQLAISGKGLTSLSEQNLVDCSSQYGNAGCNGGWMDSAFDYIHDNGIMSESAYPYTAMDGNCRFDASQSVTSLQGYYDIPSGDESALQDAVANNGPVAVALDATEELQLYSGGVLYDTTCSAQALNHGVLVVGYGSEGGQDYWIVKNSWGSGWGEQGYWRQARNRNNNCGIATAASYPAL

In the case of `CC(C)C[C@H](NC(=O)[C@H]1O[C@@H]1C(=O)O)C(=O)NCCCCN=C(N)N` [E-64], the “active-site titration with irreversible inhibitor” value is reported as “titration of peptidase active sites with the irreversible inhibitor E-64”.
